Assay results from article PMC12022153, “Sustainable approach for synthesis of new coumarin-linked Schiff bases in DABCO-based ionic liquid and their identification as aldose reductase inhibitors” (Scientific Reports, 2025).
Where two headings read alike, the source gives them in different places.

Assays:
aldose reductase (ALR2) [1] = target: T1, aldose reductase (ALR2) (Bos taurus, UniProt P16116); assay: Enzyme inhibition assay for ALR2 (aldose reductase), NADPH absorbance at 340 nm; assay type: biochemical, bovine; conditions: for selectivity of inhibition, ALR2 versus ALR1: comparison of inhibitory activity against both enzymes; for IC50: read-out: IC50 ± SEM ALR2 Inhibition; for inhibition at 100 µM: less than 50% so no IC50
T1 construct: ALR2 was extracted from the eyes while ALR1 was obtained from the kidneys; from tissue; host or cells: bovine eyes
Experimental: (§1) The ALR2 activity was estimated through measuring decrease in absorbance of NADPH in the assay at 340 nm on a spectrophotometer (FLUOstar Omega BMG LABTECH, Germany). The enzyme inhibition assay was carried out via following methods of ALR2 inhibition of our recent study. During the assay, total assay volume was kept 100 consisting of 20 µL of 100 mM sodium phosphate buffer at pH 6.2, 30 µL of the enzyme ([…]; protein concentration 12 µg mL^−1), 10 µL of test compound, and 20 µL of 1 mM substrate DL-glyceraldehyde. First, the reaction mixture was incubated without co-factor (NADPH) then reaction was initiated by addition of 20 µL of NADPH solution of 0.1 mM and monitored for five minutes. The change of absorbance was noted as pre-read and after-read, the percent inhibition was calculated for the tested compounds and standard inhibitor. For ALR1 (aldehyde reductase), sodium-D-glucuronate was employed as a substrate and valproic acid as a standard inhibitor. […] Otherwise, identical protocols were adopted for the ALR1 and ALR2 assays. First, tests compounds were solubilized in dimethyl sulfoxide (DMSO) (100%) and dilutions were prepared with deionized water to keep the concentration of DMSO at 0.1% during the assay. Initially, test compounds were tested at 100 µM. […] The logarithms of the inhibitor concentration were plotted versus the remaining activity of the enzyme, and IC50 values were calculated using non-linear regression analysis in GraphPad Prism Version 8.
(§2) Based on these reports, a library of coumarin-linked Schiff base analogues were designed. […] Compounds were also checked for selectivity via testing their inhibitory potency against ALR1 enzyme. Both aldose reductase enzymes (ALR2 and ALR1) were isolated from bovine; ALR2 was extracted from the eyes while ALR1 was obtained from the kidneys.

[2] = target: T2, aldehyde reductase (ALR1) (Bos taurus, UniProt Q3ZCJ2); assay: Enzyme inhibition assay for ALR1 (aldehyde reductase), NADPH absorbance at 340 nm; assay type: biochemical, bovine; conditions: for inhibition at 100 µM: less than 50% so no IC50; for IC50: substrate sodium-D-glucuronate, NADPH, standard valproic acid, value ± SEM
T2 construct: ALR2 was extracted from the eyes while ALR1 was obtained from the kidneys; from tissue; host or cells: bovine kidneys
T2 sequence (Q3ZCJ2 whole entry): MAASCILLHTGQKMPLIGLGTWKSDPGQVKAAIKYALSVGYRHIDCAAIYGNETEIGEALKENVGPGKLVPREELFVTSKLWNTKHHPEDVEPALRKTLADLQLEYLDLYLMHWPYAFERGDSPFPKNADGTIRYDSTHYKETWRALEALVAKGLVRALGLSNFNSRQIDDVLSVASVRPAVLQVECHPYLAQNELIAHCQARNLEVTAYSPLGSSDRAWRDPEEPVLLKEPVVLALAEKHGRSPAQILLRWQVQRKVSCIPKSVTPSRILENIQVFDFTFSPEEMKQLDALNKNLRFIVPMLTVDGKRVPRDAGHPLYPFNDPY
Experimental: as §1, §2

aldose reductase (ALR2) [3] = conditions: cited from earlier work
[4] = test compounds tested at 100 µM, read-out: % Inhibition ALR1
[5] = test compounds tested at 100 µM, read-out: % Inhibition ALR2

SMILES	selectivity of inhibition, ALR2 versus ALR1 (aldose reductase (ALR2) [1])	IC50 (aldose reductase (ALR2) [1]) [µM]	inhibition at 100 µM [2, 4] [%]	IC50 [2] [µM]	other results
Cc1ccccc1NN=Cc1ccccc1OCc1cc2ccccc2oc1=O [Compound 12, 3-((2′-((2-(o-Tolyl)hydrazineylidene)methyl)phenoxy)methyl)-2H-chromen-2-one]	selective inhibition against ALR2 enzyme	3.66 ± 0.068	37.9		
CCCC(CCC)C(=O)O [Valproic acid, reference compound]				57.4 ± 0.89	
O=c1oc2ccccc2cc1COc1ccccc1C=NNc1ccccc1 [Compound 5, 3-((2′-((2-Phenylhydrazineylidene)methyl)phenoxy)methyl)-2H-chromen-2-one]	selective inhibition against ALR2 enzyme	11.2 ± 0.029	45.1		
Cc1ccc(NN=Cc2ccccc2OCc2cc3ccccc3oc2=O)c(C)c1 [Compound 20, 3-((2′-((2-(2′′,4′′-Dimethylphenyl)hydrazineylidene)methyl)phenoxy)methyl)-2H-chromen-2-one]	non-selective inhibitions	7.63 ± 0.061		3.29 ± 0.064	
O=c1oc2ccccc2cc1COc1ccccc1C=NNc1ccc(Br)cc1 [Compound 11, 3-((2′-((2-(4′′-Bromophenyl)hydrazineylidene)methyl)phenoxy)methyl)-2H-chromen-2-one]			< 50		inhibition at 100 µM (aldose reductase (ALR2) [1]; [5]): < 50%
O=c1oc2ccccc2cc1COc1ccccc1C=NNc1ccccc1Br [Compound 10, 3-((2′-((2-(2′′-Bromophenyl)hydrazineylidene)methyl)phenoxy)methyl)-2H-chromen-2-one]			< 50		inhibition at 100 µM (aldose reductase (ALR2) [1]; [5]): < 50%
O=c1oc2ccccc2cc1COc1ccccc1C=NNc1ccc(F)cc1 [Compound 6, 3-((2′-((2-(4′′-Fluorophenyl)hydrazineylidene)methyl)phenoxy)methyl)-2H-chromen-2-one]	selective inhibition against ALR2 enzyme	2.2 ± 0.024	45.2		
O=c1oc2ccccc2cc1COc1ccccc1C=NNc1cccc(Cl)c1 [Compound 8, 3-((2′-((2-(3′′-Chlorophenyl)hydrazineylidene)methyl)phenoxy)methyl)-2H-chromen-2-one]		2.94 ± 0.083		5.96 ± 0.035	
CCc1ccccc1NN=Cc1ccccc1OCc1cc2ccccc2oc1=O [Compound 14, 3-((2′-((2-(2′′-Ethylphenyl)hydrazineylidene)methyl)phenoxy)methyl)-2H-chromen-2-one]	non-selective inhibitions	6.52 ± 0.077		12.9 ± 0.013	
C/C(=N\NC(=S)Nc1ccccc1F)c1cc2ccccc2oc1=O [XV]					selectivity relative to ALR1 enzyme (aldose reductase (ALR2) [3]): high selectivity; IC50 (aldose reductase (ALR2) [3]; coumarin-tethered thiosemicarbazones, read-out: IC50 ALR2 / aldose reductase inhibition): 2.07 µM
O=c1oc2ccccc2cc1COc1ccccc1C=NNc1ccccc1[N+](=O)[O-] [Compound 17, 3-((2′-((2-(2′′-Nitrophenyl)hydrazineylidene)methyl)phenoxy)methyl)-2H-chromen-2-one]			33.2		inhibition at 100 µM (aldose reductase (ALR2) [1]; [5]): 45.6%
Cc1ccc(NN=Cc2ccccc2OCc2cc3ccccc3oc2=O)cc1 [Compound 13, 3-((2′-((2-(p-Tolyl)hydrazineylidene)methyl)phenoxy)methyl)-2H-chromen-2-one]	selective inhibition against ALR2 enzyme	4.64 ± 0.045	34.2		
O=c1oc2ccccc2cc1COc1ccccc1C=NNc1ccc(Cl)c(Cl)c1 [Compound 21, 3-((2′-((2-(3′′,4′′-Dichlorophenyl)hydrazineylidene)methyl)phenoxy)methyl)-2H-chromen-2-one]	non-selective inhibitions	4.07 ± 0.083		11.23 ± 0.065	
N#Cc1ccc(NN=Cc2ccccc2OCc2cc3ccccc3oc2=O)cc1 [Compound 16, 4′′-(2-(2′-((2-Oxo-2H-chromen-3-yl)methoxy)benzylidene)hydrazineyl)benzonitrile]			42.9		inhibition at 100 µM (aldose reductase (ALR2) [1]; [5]): 39.2%
COc1ccc(NN=Cc2ccccc2OCc2cc3ccccc3oc2=O)cc1 [Compound 15, 3-((2′-((2-(4′′-Methoxyphenyl)hydrazineylidene)methyl)phenoxy)methyl)-2H-chromen-2-one]	non-selective inhibitions	10.19 ± 0.034		4.21 ± 0.023	
O=c1oc2ccccc2cc1COc1ccccc1C=NNc1ccc(Cl)cc1 [Compound 9, 3-((2′-((2-(4′′-Chlorophenyl)hydrazineylidene)methyl)phenoxy)methyl)-2H-chromen-2-one]		2.84 ± 0.032		4.07 ± 0.078	
O=c1oc2ccccc2cc1COc1ccccc1C=NNc1ccccc1Cl [Compound 7, 3-((2′-((2-(2′′-Chlorophenyl)hydrazineylidene)methyl)phenoxy)methyl)-2H-chromen-2-one]		3.61 ± 0.016		14.49 ± 0.052	
Cc1cccc(NN=Cc2ccccc2OCc2cc3ccccc3oc2=O)c1C [Compound 19, 3-((2′-((2-(2′′,3′′-Dimethylphenyl)hydrazineylidene)methyl)phenoxy)methyl)-2H-chromen-2-one]	selective inhibition against ALR2 enzyme	1.61 ± 0.049	37		
O=c1oc2ccccc2cc1COc1ccccc1C=NNc1cccc([N+](=O)[O-])c1 [Compound 18, 3-((2′-((2-(3′′-Nitrophenyl)hydrazineylidene)methyl)phenoxy)methyl)-2H-chromen-2-one]			35.7		inhibition at 100 µM (aldose reductase (ALR2) [1]; [5]): 42.9%
O=c1oc2ccccc2cc1COc1ccccc1C=NNc1ccc([N+](=O)[O-])cc1[N+](=O)[O-] [Compound 22, 3-((2′-((2-(2′′,4′′-Dinitrophenyl)hydrazineylidene)methyl)phenoxy)methyl)-2H-chromen-2-one]					inhibition at 100 µM (aldose reductase (ALR2) [1]; read-out: % Inhibition ALR2, test compounds tested at 100 µM): < 50%; inhibition at 100 µM ([2]; read-out: % Inhibition ALR1, test compounds tested at 100 µM): < 50%
